This is an account of results in patent publication US6492397B1, “N-arylheteroarylalkyl imidazol-2-one compounds for treatment of arteriosclerosis” (Pharmacia Corporation, priority 1991, dated 2002).

Data set [1] deals with smooth muscle angiotensin II receptor. Nature of the data set: Assay A: Angiotensin II Binding Activity (125I-angiotensin II displacement, rat uterine membrane preparation). Conditions: 50% displacement of specifically bound 125I-AII, rat uterine membranes, 25° C., 60 min. Here is the method: Assay A: Angiotensin II Binding Activity
Compounds of the invention were tested for ability to bind to the smooth muscle angiotensin II receptor using a rat uterine membrane preparation. […] Other chemicals were obtained from Sigma Chemical Co. This assay was carried out according to the method of Douglas et al [Endocrinology, 106, 120-124 (1980)]. Rat uterine membranes were prepared from fresh tissue. All procedures were carried out at 4° C. Uteri were stripped of fat and homogenized in phosphate-buffered saline at pH 7.4 containing 5 mM EDTA. The homogenate was centrifuged at 1500×g for 20 min., and the supernatant was recentrifuged at 100,000×g for 60 min. The pellet was resuspended in buffer consisting of 2 mM EDTA and 50 mM Tris-HCl (pH 7.5) to a final protein concentration of 4 mg/ml. Assay tubes were charged with 0.25 ml of a solution containing 5 mM MgCl2, 2 mM EDTA, 0.5% bovine serum albumin, 50 mM Tris-HCl, pH 7.5 and […] (approximately 10^5 cpm) in the absence or in the presence of unlabelled ligand. The reaction was initiated by the addition of membrane protein and the mixture was incubated at 25° C. for 60 min. The incubation was terminated with ice-cold 50 mM Tris-HCl (pH 7.5) and the mixture was filtered to separate membrane-bound labelled peptide from the free ligand. The incubation tube and filter were washed with ice-cold buffer. Filters were assayed for radioactivity in a Micromedic gamma counter. Nonspecific binding was defined as binding in the presence of 10 μM of unlabelled AII. Specific binding was calculated as total binding minus nonspecific binding. […] Binding data were analyzed by a nonlinear least-squares curve fitting program.

For data set [2], the system named is rabbit aortic rings. Nature of the data set: Assay B: In Vitro Vascular Smooth Muscle Response for AII (antagonist activity in rabbit aortic rings). It counts as cell-based. To be noted: Oryctolagus cuniculus, test antagonist at 10^-5 M, AII contraction, read-out: Assay B pA2 (converted). On the procedure:
Assay B: In Vitro Vascular Smooth Muscle-Response for AII
The compounds of the invention were tested for antagonist activity in rabbit aortic rings. Male New Zealand white rabbits (2-2.5 kg) were sacrificed using an overdose of pentobarbital and exsanguinated via the carotid arteries. The thoracic aorta was removed, cleaned of adherent fat and connective tissue and then cut into 3-mm ring segments. The endothelium was removed from the rings by gently sliding a rolled-up piece of filter paper into the vessel lumen. The rings were then mounted in a water-jacketed tissue bath, maintained at 37° C., between moveable and fixed ends of a stainless steel wire with the moveable end attached to an FT03 Grass transducer coupled to a Model 7D Grass Polygraph for recording isometric force responses. The bath was filled with 20 ml of oxygenated (95% oxygen/5% carbon dioxide) Krebs solution of the following composition (mM): 130 NaCl, 15 NaHCO3, […], 1.2 NaH2PO4, 1.2 MgSO4, 2.5 CaCl2, and 11.4 glucose. The preparations were equilibrated for one hour before approximately one gram of passive tension was placed on the rings. Angiotensin II concentration-response curves were then recorded (3×10^−10 to 1×10^−5 M). Each concentration of AII was allowed to elicit its maximal contraction, and then AII was washed out repeatedly for 30 minutes before rechallenging with a higher concentration of AII. Aorta rings were exposed to the test antagonist at 10^−5 M for 5 minutes before challenging with AII. Adjacent segments of the same aorta ring were used for all concentration-response curves in the presence or absence of the test antagonist. The effectiveness of the test compound was expressed in terms of pA2 values and were calculated according to H. O. Schild [Br. J. Pharmacol. Chemother., 2,189-206 (1947)]. The PA2 value is the concentration of the antagonist which increases the EC50 value for AII by a factor of two. Each test antagonist was evaluated in aorta rings from two rabbits.

The subject of data set [3] is pressor response to AII. Nature of the data set: Assay C: In Vivo Intragastric Pressor Assay Response for AII Antagonists. The arrangement: species or system rat. To be noted: for Assay C Duration: Dose: 3 mg/kg (i.g.), Sprague-Dawley rats, AII challenges up to 180 minutes after gavage; for inhibition in vivo at 3 mg/kg: Rattus norvegicus, po. Here is the method:
Assay C: In Vivo Intragastric Pressor Assay Response for AII Antagonists
Male Sprague-Dawley rats weighing 225-300 grams were anesthetized with methohexital (30 mg/kg, i.p.) and catheters were implanted into the femoral artery and vein. The catheters were tunneled subcutaneously to exit dorsally, posterior to the head and between the scapulae. The catheters were filled with heparin (1000 units/ml of saline). The rats were returned to their cage and allowed regular rat chow and water ad libitum. After full recovery from surgery (3-4 days), rats were placed in Lucite holders and the arterial line was connected to a pressure transducer. Arterial pressure was recorded on a Gould polygraph (mmHg). Angiotensin II was administered as a 30 ng/kg bolus via the venous catheter delivered in a 50 μl volume with a 0.2 ml saline flush. The pressor response in mm Hg was measured by the difference from pre-injection arterial pressure to the maximum pressure achieved. The AII injection was repeated every 10 minutes until three consecutive injections yielded responses within 4 mmHg of each other. These three responses were then averaged and represented the control response to AII. The test compound was suspended in 0.5% methylcellulose in water and was administered by gavage. The volume administered was 2 ml/kg body weight. The standard dose was 3 mg/kg. Angiotensin II bolus injections were given at 30, 45, 60, 75, 120, 150, and 180 minutes after gavage. The pressor response to AII was measured at each time point. The rats were then returned to their cage for future testing. A minimum of 3 days was allowed between tests. Percent inhibition was calculated for each time point following gavage by the following formula: [(Control Response−Response at time point)/Control Response]×100.

Where [4] appears, read: first value of the pair (aorta rings from two rabbits).
[5] abbreviates: second value of the pair (aorta rings from two rabbits).

Like-named read-outs stand apart in the source and are kept apart here.

A word on the IC50: it is the concentration that inhibits the measured activity by half. Read a high IC50 as lower potency. By melting point is commonly meant the temperature of the solid-liquid transition. As for `CCCCn1cc(C2CCCC2)n(Cc2ccc(-c3ccccc3-c3nnn[nH]3)nc2)c1=O` [Example 8, 1-butyl-4-cyclopentyl-1,3-dihydro-3-[[6-[2-(1H-tetrazol-5-yl)phenyl]-3-pyridinyl]methyl]-2H-imidazol-2-one], the melting point is 195 to 196 °C (dec.). This compound also displayed a half-maximal inhibitory concentration (IC50) in data set [1] of 140 nM.

As to `CCCCc1cn(C)c(=O)n1Cc1ccc(-c2ccccc2-c2nnn[nH]2)nc1` [Example 10, 1-methyl-4-butyl-1,3-dihydro-3-[[6-[2-(1H-tetrazol-5-yl)phenyl]-3-pyridinyl]methyl]-2H-imidazol-2-one], the melting point was 184 to 185 °C (dec.). In addition, in data set [1], the concentration for half-maximal inhibition (IC50) turned out to be 47 nM. Also, the Kb in data set [2] (setting [4]) was 22.9 nM. Moreover, the Kb in data set [2] (setting [5]) is 44.7 nM.

Regarding `CCCCc1cn(CC)c(=O)n1Cc1ccc(-c2ccccc2-c2nnn[nH]2)nc1` [Example 11, 1-ethyl-4-butyl-1,3-dihydro-3-[[6-[2-(1H-tetrazol-5-yl)phenyl]-3-pyridinyl]methyl]-2H-imidazol-2-one], the melting point was 205 °C (dec.). Moreover, the concentration for half-maximal inhibition (IC50) in data set [1] was determined as 34 nM. In addition, the Kb in data set [2] (setting [4]) was 3.63 nM. The Kb in data set [2] (setting [5]) is 9.33 nM.

`CCCCc1cn(CCC)c(=O)n1Cc1ccc(-c2ccccc2-c2nnn[nH]2)nc1` [Example 12, 1-propyl-4-butyl-1,3-dihydro-3-[[6-[2-(1H-tetrazol-5-yl)phenyl]-3-pyridinyl]methyl]-2H-imidazol-2-one] came in with a melting point of 164 to 165 °C. Besides, the IC50 in data set [1] was 31 nM. Besides, the Kb in data set [2] (setting [4]) was 20.9 nM. Further, the Kb in data set [2] (setting [5]) is 5.5 nM.

`CCCCc1cn(CC(C)C)c(=O)n1Cc1ccc(-c2ccccc2-c2nnn[nH]2)nc1` [Example 13, 1-isobutyl-4-butyl-1,3-dihydro-3-[[6-[2-(1H-tetrazol-5-yl)phenyl]-3-pyridinyl]methyl]-2H-imidazol-2-one] had a melting point of 160 to 161.5 °C. This compound also had an IC50 in data set [1] of 14 nM. The Kb in data set [2] (setting [4]) was 9.33 nM. In addition, in data set [2] (setting [5]), the Kb is 2.51 nM.

One may read the inhibition in vivo as the percentage by which the read-out fell short of the control. Low values mean little suppression, high ones strong suppression. Consider `CCCCc1cn(CCC(C)(C)C)c(=O)n1Cc1ccc(-c2ccccc2-c2nnn[nH]2)nc1` [Example 19, 1-(3,3-dimethylbutyl)-4-butyl-1,3-dihydro-3-[[6-[2-(1H-tetrazol-5-yl)phenyl]-3-pyridinyl]methyl]-2H-imidazol-2-one], for which, in data set [1], the IC50 amounted to 9.2 nM. Moreover, the Kb in data set [2] (setting [4]) was 3.72 nM. In data set [2] (setting [5]), the Kb was 4.37 nM. Also, in data set [3], the “Assay C Duration” value was over 180 min and the inhibition in vivo at 3 mg/kg was determined as 50%.

Compound `CCCCc1cn(CCc2ccccc2)c(=O)n1Cc1ccc(-c2ccccc2-c2nnn[nH]2)nc1` [Example 26, 1-(2-phenylethyl)-4-butyl-1,3-dihydro-3-[[6-[2-(1H-tetrazol-5-yl)phenyl]-3-pyridinyl]methyl]-2H-imidazol-2-one] gave a half-inhibitory concentration (IC50) in data set [1] of 3.6 nM. The Kb in data set [2] (setting [4]) was 4.37 nM. In addition, the Kb in data set [2] (setting [5]) is 3.63 nM. In addition, in data set [3], the “Assay C Duration” value came to 180 min and the inhibition in vivo at 3 mg/kg is 15%.

In the case of `CCCCc1cn(CCC2CCCC2)c(=O)n1Cc1ccc(-c2ccccc2-c2nnn[nH]2)nc1` [Example 27, 1-(2-cyclopentylethyl)-4-butyl-1,3-dihydro-3-[[6-[2-(1H-tetrazol-5-yl)phenyl]-3-pyridinyl]methyl]-2H-imidazol-2-one], the IC50 in data set [1] is 18 nM. Further, the Kb in data set [2] (setting [4]) is 1.82 nM. In data set [2] (setting [5]), the Kb was 2.14 nM. In data set [3], the “Assay C Duration” value was over 180 min and the inhibition in vivo at 3 mg/kg came out at 35%.

`CCCCc1cn(CCC2=CCCC2)c(=O)n1Cc1ccc(-c2ccccc2-c2nnn[nH]2)nc1` [Example 28, 1-[2-(cyclopenten-1-yl)ethyl]-4-butyl-1,3-dihydro-3-[[6-[2-(1H-tetrazol-5-yl)phenyl]-3-pyridinyl]methyl]-2H-imidazol-2-one] had an IC50 in data set [1] of 23 nM. The Kb in data set [2] (setting [4]) was 1.41 nM. The Kb in data set [2] (setting [5]) is 5.62 nM. In data set [3], the “Assay C Duration” value is 180 min and the inhibition in vivo at 3 mg/kg stood at 15%.

For the compound `CCCCc1cn(-c2c(F)cccc2F)c(=O)n1Cc1ccc(-c2ccccc2-c2nnn[nH]2)nc1` [Example 36, 1-(2,6-difluorophenyl)-4-butyl-1,3-dihydro-3-[[6-[2-(1H-tetrazol-5-yl)phenyl]-3-pyridinyl]methyl]-2H-imidazol-2-one], the melting point is 164.5 to 165.5 °C (dec.). Further, the IC50 in data set [1] worked out at 7 nM. Moreover, in data set [3], the “Assay C Duration” value was determined as 120 min and the inhibition in vivo at 3 mg/kg worked out at 75%.

`CCCCc1cn(-c2c(Cl)cccc2Cl)c(=O)n1Cc1ccc(-c2ccccc2-c2nnn[nH]2)nc1` [Example 37, 1-(2,6-dichlorophenyl)-4-butyl-1,3-dihydro-3-[[6-[2-(1H-tetrazol-5-yl)phenyl]-3-pyridinyl]methyl]-2H-imidazol-2-one] displayed a melting point of 212 to 212.5 °C. The compound further returned a concentration for half-maximal inhibition (IC50) in data set [1] of 4.8 nM. For the same compound, in data set [3], the “Assay C Duration” value is over 180 min and the inhibition in vivo at 3 mg/kg was found to be 25%.

`CCCCc1cn(CCCC)c(=O)n1Cc1ccc(-c2ncccc2-c2nnn[nH]2)cc1` [Example 40, 1,4-dibutyl-1,3-dihydro-3-[[4-[3-(1H-tetrazol-5-yl)-2-pyridinyl]phenyl]methyl]-2H-imidazol-2-one] gave a melting point of 178 to 179.5 °C. In addition, the IC50 in data set [1] was determined as 91 nM.

`CCCCc1cn(CCCC)c(=O)n1Cc1ccc(-c2cnccc2-c2nnn[nH]2)cc1` [Example 41, 1,4-dibutyl-1,3-dihydro-3-[[4-[4-(1H-tetrazol-5-yl)-3-pyridinyl]phenyl]methyl]-2H-imidazol-2-one] displayed a melting point of 128 to 130 °C. In addition, the half-maximal inhibitory concentration (IC50) in data set [1] is 160 nM.

Take `CCCCc1cn(CCCC)c(=O)n1Cc1ccc(-c2ccncc2-c2nnn[nH]2)cc1` [Example 42, 1,4-dibutyl-1,3-dihydro-3-[[4-[3-(1H-tetrazol-5-yl)-4-pyridinyl]phenyl]methyl]-2H-imidazol-2-one]: the melting point was 176 to 178 °C (dec.). In data set [1], this compound came in with a 50% inhibitory concentration (IC50) of 93 nM.

Consider `CCCCc1cn(CCCC)c(=O)n1Cc1ccc(-c2cccnc2-c2nnn[nH]2)cc1` [Example 43, 1,4-dibutyl-1,3-dihydro-3-[[4-[2-(1H-tetrazol-5-yl)-3-pyridinyl]phenyl]methyl]-2H-imidazol-2-one], for which the melting point lay within 178 to 179.5 °C. Further, the IC50 in data set [1] stood at 89 nM. Also, the Kb in data set [2] (setting [4]) was 28.2 nM. The Kb in data set [2] (setting [5]) was 21.4 nM.
